Test results as given in patent publication US20070087976A1, “Topiramate and pharmaceutical formulations thereof” (priority 2005, published 2007).

Experiments:
[1] = water absorption (sorption isotherm) at 25° C. and 90% r.h.; assay type: physicochemical
Method: Thus, the pure active substance absorbs less than 0.1% of water at 25° C. at 90% r.h., as indicated by the sorption isotherm shown in FIG. 1. […] The topiramate according to the invention is therefore particularly suitable for the preparation of pharmaceutical formulations. The tablet formulations according to the invention which are obtainable by direct compression absorb less moisture than commercially available tablets. […] In contrast, topiramate tablets according to the invention, as in example 1 below, absorb only 5.5% of water under the same conditions.

[2] = storage at 80° C. for one month, color changes; assay type: physicochemical

water absorbed [1]: less than 0.1%
color changes on storage [2]: no color changes
Structure (SMILES): CC1(C)O[C@@H]2[C@@H](CO[C@@]3(COS(N)(=O)=O)OC(C)(C)O[C@@H]23)O1 [topiramate, 2,3:4,5-bis-O-(1-methylethylidene)-β-D-fructopyranose sulfamate]
